Results: PubChem BioAssay AID588764 (Broad Institute, 2011)
Records with an inconclusive call do not appear. Active and inactive are the calls of the source. How the calls were made is not given here.

Target: Histone acetyltransferase RTT109 (Candida albicans (strain SC5314 / ATCC MYA-2876)) (UniProt Q5AAJ8)
Assay: C. albicans Rtt109 HAT inhibition curves – biochemical, cherry-picked hits, plate reader, dose response (AID 588764);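 on activity change, negative = inhibition: 0% = neutral control wells and -100% = no enzyme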
Conditions: Rtt109/Vps75 HAT activity

Chain of Histone acetyltransferase RTT109 (Candida albicans (strain SC5314 / ATCC MYA-2876)) (Q5AAJ8 whole entry, looked up): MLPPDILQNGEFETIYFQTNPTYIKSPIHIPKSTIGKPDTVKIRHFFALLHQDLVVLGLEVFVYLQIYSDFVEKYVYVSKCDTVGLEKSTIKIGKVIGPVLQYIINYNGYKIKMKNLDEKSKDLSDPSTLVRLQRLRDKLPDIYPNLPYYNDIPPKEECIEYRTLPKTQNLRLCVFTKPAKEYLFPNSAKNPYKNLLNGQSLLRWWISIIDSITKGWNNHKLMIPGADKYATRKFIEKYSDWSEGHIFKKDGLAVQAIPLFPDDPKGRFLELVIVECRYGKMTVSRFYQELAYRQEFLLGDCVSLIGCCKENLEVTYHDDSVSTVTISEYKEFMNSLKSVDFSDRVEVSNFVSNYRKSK

Compound	AC50 [µM]
COc1ccc(-n2sc3ccc(F)cc3c2=O)cc1	6
O=C(O)c1cccc(-n2sc3ccccc3c2=O)c1	10.5
CS(=O)(=O)c1ncc(Cl)c(C(=O)Nc2ccc(N3CCOCC3)cc2)n1	8.27
O=c1c2cc(F)ccc2sn1-c1ccccc1	1.81
N#Cc1c(Nc2ccccc2)s[nH]c1=O	5.84
COC(=O)c1cccc(N2C(=O)C(Cl)=C(N3CCOCC3)C2=O)c1	15.8
CC(C)(C)c1cc(C(c2cccnc2)N2CCN(CCO)CC2)cc(C(C)(C)C)c1O (stereo not drawn)	9.87
O=[N+]([O-])c1ccc(Sc2cccc[n+]2[O-])c2nonc12	11.6
O=c1c2ccccc2sn1-c1cc(S(=O)(=O)N2CCOCC2)ccc1N1CCOCC1	3.78
CCCCCCCCCCCCCCCC[N+](C)(C)CCN(Cc1ccc(OC)cc1)c1ncccn1	16.1
Nc1nnc(SC2CC(=O)N(c3ccccc3)C2=O)s1 (stereo not drawn)	13.6
O=C(CCc1ccc(S(=O)(=O)N2CCOCC2)cc1)N/N=C/c1ccc(O)c(O)c1O	9.29
Nc1nc2ccc(S(=O)(=O)N3CCCCC3)cc2s1	19.5
Oc1cc2c(cc1O)[C@H]1c3ccc(O)c(O)c3OC[C@@]1(O)C2	7.81
CCOC(=O)C(=Cc1cc(=O)c(OC)co1)C(=O)OCC	10.7
Cc1ccc(/C=C/C(=O)NCc2ccc(S(N)(=O)=O)cc2)o1	10.7
Cc1cccc(N2C(S)=C(C#N)C(=O)NC2c2cccs2)c1 (stereo not drawn)	11.7
CCCNC(=O)Cn1sc2nc(C)cc(C)c2c1=O	2.32

Same assay, conditions: Rtt109/Vps75 HAT activity, at 19.5 µM (top of the series)

Compound	activity change, negative = inhibition
CC1CCN(c2ccccc2NC(=O)c2cc([N+](=O)[O-])ccc2N2CCOCC2)CC1	inactive
Cc1ccc(S(=O)(=O)N/N=C\C=C\c2ccccc2)cc1	inactive
CCCCNS(=O)(=O)c1ccc(NC(=O)Cc2ccccc2[N+](=O)[O-])cc1	inactive
COc1cccc(-c2ccc(C#N)c(SCC(=O)NCCc3ccc(Cl)cc3)n2)c1	inactive
O=C(NC(=S)Nc1ccc(Oc2ccccc2)cc1)c1ccc(Cl)cc1	inactive
COc1ccc(S(=O)(=O)N(C)C)cc1NC(=O)Cc1ccc(S(=O)(=O)N2CCOCC2)s1	inactive
COc1ccc2[nH]c(=O)c(CN(Cc3nnnn3Cc3ccccc3)CC3CCCO3)cc2c1 (stereo not drawn)	inactive
COCCN1Cc2cccc(C(=O)Nc3ccc(-c4nc5ccccc5[nH]4)cc3)c2C1=O	inactive
Cc1c(C(=O)Nc2ccc(S(=O)(=O)N(C)C3CCN(C)CC3)cc2)oc2c(Cl)cccc12	inactive
COc1ccc(C2CC(=O)C(C=NCCO)=C(O)C2)cc1 (stereo not drawn)	inactive
CCN1/C(=C/c2ccc3cc(C)ccc3[n+]2CC)Sc2cc(C)ccc21	inactive
CCOC(=O)C1CCN(c2ccc([N+](=O)[O-])c(C(C)=O)c2)CC1	inactive
COc1ccc(NC(=O)c2nc3ccccc3s2)cc1	inactive
Clc1ccc(COC(Cn2ccnc2)c2ccc(Cl)cc2Cl)c(Cl)c1 (stereo not drawn)	inactive
O=S(=O)(Nc1ccc(O)c(Sc2nc3ccccc3s2)c1)c1cccc2ccccc12	inactive
CCOc1cc(/C=N/NC(=O)CSc2nncn2C)ccc1OCc1cccc(C)c1	inactive
CC(C)CCNC(=O)C1CCN(S(=O)(=O)c2ccc3c(c2)CC(C)N3C(=O)C2CCC2)CC1 (stereo not drawn)	inactive
CCCCc1ccc(-n2c(Cc3cccs3)n[nH]c2=S)cc1	inactive
CC1Sc2ccccc2N(CC(=O)N(C(C)C)C(C)C)C1=O (stereo not drawn)	inactive
CCCC(CCC)C(=O)OC[N+](C)(C)CCOC(=O)C(O)(c1ccccc1)C1CCCC1 (stereo not drawn)	inactive
O=C(CCn1c(=O)c2ccccc2n(Cc2cccc([N+](=O)[O-])c2)c1=O)N1CCc2ccccc2C1	inactive
CCOC(=O)C1CCN(S(=O)(=O)c2ccc3c(c2)CC(C)N3C(=O)C2CCC2)CC1 (stereo not drawn)	inactive
Cc1ccc(CN(C(=O)c2ccccc2C)C2CCS(=O)(=O)C2)o1 (stereo not drawn)	inactive
O=C(CN1CCCc2ccccc21)NCc1ccc2c(c1)OCO2	inactive
CC(C(=O)NC1CCS(=O)(=O)C1)N1C(=O)/C(=C/c2ccc(Cl)cc2)SC1=S (stereo not drawn)	inactive

Compound	activity change, negative = inhibition
CCn1c(SCC(=O)Nc2ccc(Br)cc2)nc2sc3c(c2c1=O)CCN(C)C3	inactive
CC1(C)OC(=O)N(c2ccccc2)C12C=Cc1cc(Br)ccc1O2 (stereo not drawn)	inactive
Cc1ccc2nc(N(CCCN(C)C)C(=O)c3ccc4c(c3)CCCC4)sc2c1	inactive
Cc1ccccc1/C=C/C(=O)NCC(=O)N1CCC(N(C)C2CCCCC2C)CC1 (stereo not drawn)	inactive
Fc1ccccc1C1CC(c2ccco2)=Nc2ccccc2S1 (stereo not drawn)	inactive
CC(=O)N1CCN(c2ncnc3ccccc23)CC1	inactive
CCOC(=O)c1c(NC(=O)C[n+]2ccc(Cc3ccccc3)cc2)sc(C)c1C	inactive
CN(C(=O)c1ccc(N2CCCCC2)c([N+](=O)[O-])c1)C1(C)CCS(=O)(=O)C1 (stereo not drawn)	inactive
COCc1ccc(CN2CCC(n3nccc3NC(=O)C(OC)c3ccccc3)CC2)o1 (stereo not drawn)	inactive
COc1ccc(CCNC(=O)CN2C(=O)NC3(CCCCC3C)C2=O)cc1 (stereo not drawn)	inactive
O=C(O)C(Cc1ccccc1)N1C(=O)/C(=C/c2cccs2)SC1=S (stereo not drawn)	inactive
CC(=O)Nc1nnc(CCS(=O)(=O)c2ccc(C)c(C)c2)s1	inactive
O=C(O)c1cccc2c1NC(C(=O)O)C1CC(Sc3ccccc3[N+](=O)[O-])C(Cl)C21 (stereo not drawn)	inactive
COc1ccc(N2CCN(C(=O)CSc3nnc(-c4cccnc4)n3-c3ccccc3)CC2)cc1	inactive
COc1cccc2c1Oc1ncccc1N(C(=O)CCC(=O)NCc1ccc(F)cc1)C2	inactive
COc1ccc(Br)cc1CN(C)C(C)C(=O)Nc1cccc(C(C)=O)c1 (stereo not drawn)	inactive
O=C(O)CSCC(=O)Nc1cc(C(F)(F)F)ccc1Cl	inactive
CC(=O)Nc1ccc(OCC(=O)NCc2ccccc2)cc1	inactive
O=C(Nc1nc(-c2nc3ccccc3s2)cs1)c1ccc(S(=O)(=O)N2CCOCC2)cc1	inactive
CCN(CC)c1ccc(C(=S)N2CCN(c3ccccc3)CC2)cc1	inactive
COc1ccccc1NC1=C(Cl)C(=O)N(C2CCCCC2)C1=O	inactive
CC(C)C(=O)Nc1nnc(CCN2CCCCC2)s1	inactive
C#CCOCCOCCOCCNc1nc(N2CCN(C(=O)C([C@@H](C)O)n3cc([C@@H](N)CCCCN)nn3)CC2)nc(N2CCN(C(=O)C([C@@H](C)O)n3cc([C@@H](N)CCCCN)nn3)CC2)n1 (stereo partly drawn)	inactive
CN(C)CCCN(C(=O)CCOc1ccccc1)c1nc2c(F)cccc2s1	inactive
O=C(O)C(Cc1ccccc1)N1C(=O)/C(=C/c2ccccc2)SC1=S (stereo not drawn)	inactive

Compound	activity change, negative = inhibition
COc1cc(C2NC(=O)C(C#N)=C(S)N2c2ccccc2)ccc1OC(C)C (stereo not drawn)	inactive
Cc1ccc(C2=NC(C)(C)N=C2SCC(=O)Nc2ccc(Cl)cc2)cc1	inactive
Cc1cc(C)cc(NC(=O)NC(C)C2CCCO2)c1 (stereo not drawn)	inactive
O=C(C1CCCO1)N1CCN(C(=S)Nc2ccc(Cl)cc2Cl)CC1 (stereo not drawn)	inactive
CCCCCCCCCn1c2c(c(=N)c3c1CCC3)CCC2	inactive
CCCn1cc(S(=O)(=O)CC(=O)NC2CCCCC2)c2ccccc21	inactive
Cc1ccccc1C(=O)NC(NC(=S)Nc1ccc(S(N)(=O)=O)cc1)C(Cl)(Cl)Cl (stereo not drawn)	inactive
Cc1ccc(C(=O)NCC(=O)NCC(c2ccco2)N2CCCCC2)cc1C (stereo not drawn)	inactive
CC1CCCCC1N(C)C1CCN(C(=O)CNC(=O)/C=C/c2cccc(Cl)c2)CC1 (stereo not drawn)	inactive
CCOC(=O)c1cc2c(N)c(C(=O)c3cc(C#N)c(SC)nc3C)sc2nc1C	inactive
COc1ccc(N2CCN(C(=O)CNC(=O)Cc3ccccc3)CC2)cc1	inactive
CCN(CC)S(=O)(=O)c1ccc(C(=O)Nc2cc(S(=O)(=O)N3CCOCC3)ccc2N2CCN(C)CC2)cc1	inactive
O=C(COC(=O)Cc1ccccc1[N+](=O)[O-])Nc1nnc(-c2ccccc2)o1	inactive
O=C(NCCCN1CCCC1=O)c1ccc(OC(F)(F)F)cc1	inactive
O=C1CCC(=O)N1c1ccc(-c2nc3ccccc3s2)cc1	inactive
NNc1n[nH]c(=S)n1N	inactive
Cc1ccccc1C(=O)NCCNC(=O)c1ccco1	inactive
Cc1cc(C)nc(N2CCC(C(=O)Nc3ccc4c(c3)OCCO4)CC2)n1	inactive
Cc1ccc2nc(-c3ccc(NC(=S)NC4CC(C)(C)NC(C)(C)C4)cc3)sc2c1	inactive
COc1ccc(S(=O)(=O)N2CCN(c3ccccn3)CC2)cc1OC	inactive
COc1ccc(NC(=O)Nc2nnc(-c3cccs3)s2)cc1	inactive
CCOC(=O)c1c(C)oc2c1c(C=NCCO)c(O)c1ccccc12	inactive
CC(C)c1nnc(NC(=O)CCC(=O)NCc2cccs2)s1	inactive
COC(=O)c1ccc(N2C(=O)CC(SCC(=O)Nc3ccc(OC)cc3)C2=O)cc1 (stereo not drawn)	inactive
O=C(CSC1=NC2(CCCCC2)N=C1c1ccccc1)Nc1ccc2c(c1)OCCO2	inactive
